{"source": "paper PMC11400957", "about": "(The Journal of Biological Chemistry, 2024)", "target": "IpaD^WT (full-length) (Shigella flexneri, UniProt P18013)", "sequence (P18013 whole entry)": "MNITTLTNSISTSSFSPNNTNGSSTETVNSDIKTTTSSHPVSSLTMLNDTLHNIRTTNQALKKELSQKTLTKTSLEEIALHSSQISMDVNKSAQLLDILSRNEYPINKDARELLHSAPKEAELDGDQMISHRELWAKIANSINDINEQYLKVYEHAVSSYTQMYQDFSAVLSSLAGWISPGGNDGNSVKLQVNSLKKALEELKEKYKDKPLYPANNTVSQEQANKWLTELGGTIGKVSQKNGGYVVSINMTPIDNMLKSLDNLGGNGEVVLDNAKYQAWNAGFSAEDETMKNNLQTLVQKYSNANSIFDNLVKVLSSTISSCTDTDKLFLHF", "experiment": "CD thermal unfolding at […] nm", "assay_type": "binding", "conditions": "1 mM DOC, PBS pH 7.4, 0.5 mg/ml protein; absolute Tm with ligand, not a shift; nonspecific detergent effect not excluded", "data": [{"compound": "C[C@H](CCC(=O)O)[C@H]1CC[C@H]2[C@@H]3CC[C@@H]4C[C@H](O)CC[C@]4(C)[C@H]3C[C@H](O)[C@]12C", "note": "[deoxycholate]", "values": [{"measurement": "Tm ^b (°C ± SD) / +DOC", "result": "77 ± 1", "unit": "°C"}]}]}
